Converted amounts (≈) assume the structure as drawn. Where a name gives a salt, the structure may show the parent alone. Read-outs that look alike come from different tables or passages of the source.

For series [1] the following is noted: salts of pivampicillin, cited from earlier work.
Details of series [2]: species or system healthy volunteers (adults). Particulars: human, in vivo. As for the experimental part: The above preparation was given to five healthy volunteers (adults), and as will appear from Table II below, gave rise to high serum concentrations and a high urinary recovery, as expressed below in terms of serum concentrations and urinary excretion, respectively.
SERUM CONCENTRATIONS (mcg per ml) AND URINARY EXCRETION
(in per cent of dose administered) OF AMPICILLIN IN FIVE
HEALTHY VOLUNTEERS (ADULTS) FOLLOWING ORAL ADMINISTRATION
OF 10 ml OF "PIVAMPICILLIN ORAL SUSPENSION" CONTAINING
PIVAMPICILLIN BASE CORRESPONDING TO 250 mg AMPICILLIN

The nature of series [3]: Density of crystalline pivampicillin compared with its salts. It counts as physicochemical. The conditions noted are these: crystalline pivampicillin versus its salts.
The conditions of series [4]: chemical substance pivampicillin, under certain conditions; cited from earlier work.
Series [5] can be described thus: Solubilities at room temperature (about 25°C) in various solvents. It counts as physicochemical.
The nature of series [6]: Stability of crystalline pivampicillin and of the preparation of Example 20 (chemical analyses). It counts as physicochemical. Particulars: crystalline pivampicillin in medical preparations. The protocol: Thus the preparation, the formulation of which is described in Example 20 of the present Specification, had according to chemical analyses a stability corresponding to a decrease in activity in the order of 5% over a 2 years period when stored at 20°C and a relative humidity of 40%.

Take `CC(C)(C)C(=O)OCOC(=O)[C@@H]1N2C(=O)[C@@H](NC(=O)[C@H](N)c3ccccc3)[C@H]2SC1(C)C`: the “Solubility of salt in water (in words)” value in series [1] is recorded as “slightly soluble in water”.
With `CC(C)(C)C(=O)OCOC(=O)[C@@H]1N2C(=O)[C@@H](NC(=O)[C@H](N)c3ccccc3)[C@H]2SC1(C)C` [hydrochloride, pivaloyloxymethyl D(-)-α-aminobenzylpenicillinate, hydrochloride], the “Solubility of salt in water (in words)” value in series [1] (hydrochloride) is given as “readily soluble in water”.
Usually solubility stands for how much of the substance goes into solution per volume. Consider `CC(C)(C)C(=O)OCOC(=O)[C@@H]1N2C(=O)[C@@H](NC(=O)[C@H](N)c3ccccc3)[C@H]2SC1(C)C` [pivampicillin, pivaloyloxymethyl D(-)-α-aminobenzylpenicillinate], for which the “Absorption (in words)” value in series [2] is “excellent absorption”. In addition, the Density entry in series [3] is recorded as “higher density than its salts”. For the same compound, in series [4], the Tendency to polymerize entry is recorded as “apt to polymerize”. For the same compound, the “Solubility in water (in words)” value in series [5] (crystalline pivampicillin) was “extremely low solubility in water”. Also, the Stability in methanol result in series [5] (methanol, room temperature (about 25°C)) is “destruction”. The solubility turned out to be 450000 µg/mL (≈ 971 mM) in series [5] (organic solvent or mixture, acetonitrile, room temperature (about 25°C), read-out: Solubility in acetonitrile); 150 µg/mL (≈ 0.324 mM) in series [5] (organic solvent or mixture, cyclohexane, room temperature (about 25°C), read-out: Solubility in cyclohexane); 40000 µg/mL (≈ 86.3 mM) in series [5] (organic solvent or mixture, ethanol, room temperature (about 25°C), read-out: Solubility in ethanol); 10000 µg/mL (≈ 21.6 mM) in series [5] (organic solvent or mixture, ether, room temperature (about 25°C), read-out: Solubility in ether); 12000 µg/mL (≈ 25.9 mM) in series [5] (organic solvent or mixture, isopropanol, room temperature (about 25°C), read-out: Solubility in isopropanol); 1000 µg/mL (≈ 2.16 mM) in series [5] (organic solvent or mixture, isopropylether, room temperature (about 25°C), read-out: Solubility in isopropylether). The solubility is 20 µg/mL (≈ 0.0431 mM) in series [5] (organic solvent or mixture, light petroleum (bp. 60-80°C), room temperature (about 25°C), read-out: Solubility in light petroleum); above 500000 µg/mL in series [5] (organic solvent or mixture, methanol, room temperature (about 25°C), (destruction), read-out: Solubility in methanol); 100 µg/mL (≈ 0.216 mM) in series [5] (water, room temperature (about 25°C), read-out: Solubility in water). Moreover, the “Stability (in words)” value in series [6] was “stable compound”.

Values taken from patent US3956279A, “Crystalline pivaloyloxymethyl d(-)-α-aminobenzylpenicillinate” (priority 1973, dated 1976).
